Laboratory results published in patent US8834907B2, “Active nanocomposite materials and production method thereof” (Nanobiomatters, S.L., priority 2008, dated 2014).

Tested on: Salmonella
Conditions: used in suspension
Experimental: To evaluate the antimicrobial capacity of PLA films, 600 mg of film were weighed, for both control without clay and for the sample with antimicrobial clay, and placed into 10 mL of sterile culture medium. They were stored at 4° C. for four weeks, prior to inoculation with Salmonella spp.

## O=[N+]([O-])[O-].[Ag+] [silver nitrate]
  minimum bactericidal concentration (reducing the population to zero): around 100 ppm
